The values that follow come from patent publication EP3848017A1, “ORAL CARE COMPOSITION CONTAINING INDOLE COMPONENTS FOR TREATING CARIES” (3M Innovative Properties Company, priority 2020, dated 2021).

In one assay the test system is in vitro human saliva microcosm biofilm. Description: Determination of Lactic Acid Release (LAR) after Permanent Exposure Procedure (LDH-NAD-PMS-MTT enzyme assay). To be noted: Indole 0.07 wt.% in MCM-1% sucrose, about 26 hours biofilm growth, 37 °C, vs untreated control TC0, negative number = release of lactic acid reduced. The assay is classed as cell-based. As to the method:
To determine the metabolic activity of the biofilm sample, the accumulation of lactic acid in the supernatant (1.0 ml PBS-solution with 5% sucrose per each biofilm sample disc) was measured by using the Lactic acid dehydrogenase (LDH)- Nicotinamide-adenine-dinucleotide (NAD)-Phenazine Methosulphate (PMS) - Thiazolyl blue tetrazolium bromide (MTT) - enzyme assay. To ensure that only freshly produced lactic acid is determined, the biofilm samples were washed four times with 1.0 ml PBS solution for 30 sec each. After 30 min the accumulated amount of lactic acid in the supernatant was measured by analyzing 50 µl of the supernatant. The lactic acid was quantified by the lactic acid specific enzyme assay described above. Known correlation between measured enzyme activity and amount of lactic acid was used to translate measured enzyme activity into the amount of lactic acid present in sample of the supernatant. In accordance to the validation of the in vitro human saliva microcosm biofilm model, a compound should lower the lactic acid release in permanent application of at least 40 or at least 50 % in comparison to the untreated biofilm control. […] Bovine sample disks of about 10 x 10 mm (+/- 2mm) were incubated in a 24 well plate containing 1.8 ml medium in an incubator at 37°C and 60 rpm circular movement. The treatment composition described below were added by pipetting and removed by a suction pump. • Day 1: Four-hours inoculation of bovine sample disks with saliva-mcm media (MCM = mucine containing medium plus 1 % sucrose) at 37 °C (without active substance). • Fresh medium (MCM-1% sucrose) containing the respective amounts of indole component as given in Table 2. This Treatment Composition was used for another 3-hour incubation. • Fresh medium (MCM-1% sucrose and Treatment Composition) for storage for about 14h at 37 °C. • Day 2: Fresh medium (MCM-1% sucrose and Treatment Composition) for 2-hour incubation. • Fresh medium (MCM-1% sucrose and Treatment Composition) for another 2-hour incubation. […]
Regarding `COc1ccc2[nH]cc(CC(=O)O)c2c1` [TC2 - IA2, 5-Methoxy-3-Indoleacetic acid], the inhibition at 0.07 % was 87.8%.

The same assay, now with this note: Indole 0.073 wt.% in MCM-1% sucrose, about 26 hours biofilm growth, 37 °C, vs untreated control TC0, negative number = release of lactic acid reduced.
In turn, `O=C(O)CCc1c[nH]c2ccccc12` [TC1 - IA1, Indole-3-propionic acid] displayed an inhibition at 0.073 % of 95.3%.

The assay is the same for the next values; noted with them: Indole 0.1 wt.% in MCM-1% sucrose, about 26 hours biofilm growth, 37 °C, vs untreated control TC0, negative number = release of lactic acid reduced.
Compound `O=C(O)Cc1c[nH]c2ccccc12` [TC3 - IA3, Indole acetic acid] registered an inhibition at 0.1 % of 78%.

The subject of another assay is lactic acid producing bacteria in an oral biofilm.
Test: not given
To be noted: qualitative statement; amino acids, as described in EP 18183601.6; cited from earlier work.
With `N[C@@H](Cc1ccccc1)C(=O)O` [phenylalanine], the “reducing the lactic-acid release of bacteria in a biofilm” value (“reducing the lactic-acid release” below) is on record as “useful”.

Regarding `NCC(=O)O` [glycine], the “reducing the lactic-acid release” value is on record as “useful”.

On to `CC[C@H](C)[C@H](N)C(=O)O` [isoleucine], for which the “reducing the lactic-acid release” value is listed as “useful”.

For the compound `NC(=O)CC[C@H](N)C(=O)O` [glutamine], the “reducing the lactic-acid release” value is recorded as “not effective”.

Regarding `O=C(O)[C@@H]1CCCN1` [proline], the “reducing the lactic-acid release” value is listed as “not effective”.

For the compound `N[C@@H](Cc1ccc(O)cc1)C(=O)O` [tyrosine], the “reducing the lactic-acid release” value was “not effective”.

`NCCCC[C@H](N)C(=O)O` [lysine]: the “reducing the lactic-acid release” value is “useful”.

As to `CC(C)[C@H](N)C(=O)O` [valine], the “reducing the lactic-acid release” value is on record as “useful”.

Take `N[C@@H](CO)C(=O)O` [serine]: the “reducing the lactic-acid release” value is “useful”.

Regarding `N=C(N)NCCC[C@H](N)C(=O)O` [arginine], the “reducing the lactic-acid release” value was “not effective”.

As to `C[C@@H](O)[C@H](N)C(=O)O` [threonine], the “reducing the lactic-acid release” value is reported as “useful”.

`N[C@@H](Cc1c[nH]cn1)C(=O)O` [histidine]: the “reducing the lactic-acid release” value was “not effective”.

Regarding `CSCC[C@H](N)C(=O)O` [methionine], the “reducing the lactic-acid release” value is “useful”.

With `CC(C)C[C@H](N)C(=O)O` [leucine], the “reducing the lactic-acid release” value was “useful”.

For `N[C@@H](CC(=O)O)C(=O)O` [aspartic acid], the “reducing the lactic-acid release” value is recorded as “not effective”.

Turning to `N[C@@H](Cc1c[nH]c2ccccc12)C(=O)O` [tryptophan], the “reducing the lactic-acid release” value is “useful”.
